From patent publication US20100016331A1, “NOVEL COMPOUNDS” (priority 2006, published 2010)

Tests used:
[1] = target: T1, glucocorticoid receptor (Homo sapiens, UniProt P04150); experiment: Glucocorticoid Receptor Binding Assay (fluorescence polarisation, competition with Alexa 555 labelled dexamethasone derivative); conditions: displacement of fluorescent dexamethasone, partially purified full length glucocorticoid receptor, 2 hours at room temperature; read-out: glucocorticoid binding pIC50 (converted)
T1 construct: a partially purified full length glucocorticoid receptor were added to the plates
T1 sequence (P04150 1-777): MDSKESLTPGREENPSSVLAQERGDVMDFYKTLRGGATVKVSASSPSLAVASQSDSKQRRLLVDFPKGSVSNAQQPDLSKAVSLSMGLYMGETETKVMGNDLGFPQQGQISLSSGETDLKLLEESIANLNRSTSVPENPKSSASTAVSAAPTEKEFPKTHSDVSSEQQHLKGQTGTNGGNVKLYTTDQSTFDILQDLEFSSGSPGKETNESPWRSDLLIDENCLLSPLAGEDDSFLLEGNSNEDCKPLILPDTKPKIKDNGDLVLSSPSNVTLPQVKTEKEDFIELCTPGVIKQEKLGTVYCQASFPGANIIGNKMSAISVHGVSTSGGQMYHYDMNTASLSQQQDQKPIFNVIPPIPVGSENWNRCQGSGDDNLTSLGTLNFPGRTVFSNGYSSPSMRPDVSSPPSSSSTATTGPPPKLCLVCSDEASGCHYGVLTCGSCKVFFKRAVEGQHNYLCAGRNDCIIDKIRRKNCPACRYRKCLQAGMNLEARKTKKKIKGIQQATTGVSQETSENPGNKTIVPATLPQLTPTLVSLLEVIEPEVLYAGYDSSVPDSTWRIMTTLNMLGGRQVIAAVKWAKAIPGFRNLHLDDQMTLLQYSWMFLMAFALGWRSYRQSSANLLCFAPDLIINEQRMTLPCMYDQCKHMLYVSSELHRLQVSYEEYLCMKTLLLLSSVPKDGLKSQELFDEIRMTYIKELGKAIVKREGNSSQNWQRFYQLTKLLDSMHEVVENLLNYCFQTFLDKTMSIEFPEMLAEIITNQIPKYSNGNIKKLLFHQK
Description: Glucocorticoid Receptor Binding Assay
The ability of compounds to bind to the glucocorticoid receptor was determined by assessing their ability to compete with an Alexa 555 fluorescently-labelled dexamethasone derivative. Compounds were solvated and dilutedin DMSO, and transferred directly into assay plates. Fluorescent dexamethasone and a partially purified full length glucocorticoid receptor were added to the plates, together with buffer components to stabilise the GR protein (including stabilisation peptide (Panvera catalogue number P2815)) andincubated at room temperature for 2 hours in the dark. Binding of each compound was assessed by analysing the displacement of fluorescent ligand by measuring the decrease in fluorescence polarisation signal from the mixture.

[2] = test system: NFkB Activity; experiment: Glucocorticoid Mediated Transrepression of NFkB Activity (A549 cells, NFkB dependent ELAM promoter, secreted placental alkaline phosphatase reporter, TNFα stimulated); type: cell-based; conditions: Human A549 lung epithelial cells, 3 ng/ml human recombinant TNFα, 16 hr; read-out: pEC50, transrepression of NFkB activity (converted)
Source text: Glucocorticoid Mediated Transrepression of NFkB Activity
Human A549 lung epithelial cells were engineered to contain a secreted placental alkaline phosphatase gene under the control of the distal region of the NFkB dependent ELAM promoter as previously described in Ray, K. P., Farrow, S., Daly, M., Talabot, F. and Searle, N. “Induction of the E-selectin promoter by interleukin 1 and tumour necrosis factor alpha, andinhibition by glucocorticoids” Biochemical Journal (1997) 328: 707-15.
Compounds were solvated and dilutedin DMSO, and transferred directly into assay plates such that the final concentration of DMSO was 0.7%. Following the addition of cells (40K per well), plates were incubated for 1 hr prior to the addition of 3 ng/ml human recombinant TNFα. Following continued incubation for 16 hr, alkaline phosphatase activity was determined by measuring the change in optical density at 405 nm with time following the addition of 0.7 volumes of assay buffer (1 mg/ml p-nitrophenylphosphate dissolvedin 1M diethanolamine, 0.28M NaCl, 0.5 mM MgCl2). Dose response curves were constructed from which EC50 values were estimated.

IC50 [1]: < 316 nM
EC50 [2]: < 10 nM
SMILES: COc1ccc(F)cc1C(C)(C)CC(O)(CNc1cc(C)cc2c1cnn2-c1cccc(C(=O)N[C@H]2CCOC2=O)c1)C(F)(F)F (single isomer, unassigned) [Example 21-A]
